Results published in article PMC5698967, “A novel GH10 xylanase from Penicillium sp. accelerates saccharification of alkaline-pretreated bagasse by an enzyme from recombinant Trichoderma reesei expressing Aspergillus β-glucosidase” (Biotechnology for Biofuels, 2017).

Target: T1, PspXyn10 (Penicillium sp., UniProt A0A2Z5XER4)
T1 construct: full-length cDNA (404 residues), predicted signal peptide 1-22 removed on secretion; GH10 (25-336) + CBM1 (372-404); untagged, expressed in Trichoderma reesei C1PX10, purified; 55 kDa on SDS-PAGE; internal peptides LYYNDYNLESAGAK, NHLTNVVTHYK, YAWDVVNEGLNDDGTYR
T1 sequence (A0A2Z5XER4 23-404): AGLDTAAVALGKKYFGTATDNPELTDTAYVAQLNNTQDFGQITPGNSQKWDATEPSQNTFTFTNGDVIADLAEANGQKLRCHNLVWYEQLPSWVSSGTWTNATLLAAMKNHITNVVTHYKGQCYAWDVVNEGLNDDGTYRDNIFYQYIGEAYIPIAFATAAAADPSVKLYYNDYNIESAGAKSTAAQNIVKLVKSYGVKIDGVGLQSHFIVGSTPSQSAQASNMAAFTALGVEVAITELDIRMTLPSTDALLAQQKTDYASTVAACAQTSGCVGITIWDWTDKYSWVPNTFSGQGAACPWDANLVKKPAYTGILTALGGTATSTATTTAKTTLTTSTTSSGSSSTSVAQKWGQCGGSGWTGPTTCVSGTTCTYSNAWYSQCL
Assay: p-nitrophenol release, absorbance at […] nm
Assay type: biochemical
Details: 1 mM substrate; 50 mM sodium acetate pH 5.0; 50 °C; 5 min

O=[N+]([O-])c1ccc(O[C@@H]2OC[C@@H](O[C@@H]3OC[C@@H](O)[C@H](O)[C@H]3O)[C@H](O)[C@H]2O)cc1 [pNPX2, p-nitrophenyl xylobioside]
specific activity: enzymatic activity of purified PspXyn10, JN11H, and JNK25H against p-nitrophenyl xylobioside (pNPX2) was assayed
